The values below come from patent US12404241B2 (Celgene Corporation, priority 2018, dated 2025).

Counter-ions that a name gives are not always drawn.

In the assay the target is T1, AR (Homo sapiens, UniProt P10275).
T1 construct: endogenous in cells; host or cells: VCaP cells
T1 sequence (P10275 1-920): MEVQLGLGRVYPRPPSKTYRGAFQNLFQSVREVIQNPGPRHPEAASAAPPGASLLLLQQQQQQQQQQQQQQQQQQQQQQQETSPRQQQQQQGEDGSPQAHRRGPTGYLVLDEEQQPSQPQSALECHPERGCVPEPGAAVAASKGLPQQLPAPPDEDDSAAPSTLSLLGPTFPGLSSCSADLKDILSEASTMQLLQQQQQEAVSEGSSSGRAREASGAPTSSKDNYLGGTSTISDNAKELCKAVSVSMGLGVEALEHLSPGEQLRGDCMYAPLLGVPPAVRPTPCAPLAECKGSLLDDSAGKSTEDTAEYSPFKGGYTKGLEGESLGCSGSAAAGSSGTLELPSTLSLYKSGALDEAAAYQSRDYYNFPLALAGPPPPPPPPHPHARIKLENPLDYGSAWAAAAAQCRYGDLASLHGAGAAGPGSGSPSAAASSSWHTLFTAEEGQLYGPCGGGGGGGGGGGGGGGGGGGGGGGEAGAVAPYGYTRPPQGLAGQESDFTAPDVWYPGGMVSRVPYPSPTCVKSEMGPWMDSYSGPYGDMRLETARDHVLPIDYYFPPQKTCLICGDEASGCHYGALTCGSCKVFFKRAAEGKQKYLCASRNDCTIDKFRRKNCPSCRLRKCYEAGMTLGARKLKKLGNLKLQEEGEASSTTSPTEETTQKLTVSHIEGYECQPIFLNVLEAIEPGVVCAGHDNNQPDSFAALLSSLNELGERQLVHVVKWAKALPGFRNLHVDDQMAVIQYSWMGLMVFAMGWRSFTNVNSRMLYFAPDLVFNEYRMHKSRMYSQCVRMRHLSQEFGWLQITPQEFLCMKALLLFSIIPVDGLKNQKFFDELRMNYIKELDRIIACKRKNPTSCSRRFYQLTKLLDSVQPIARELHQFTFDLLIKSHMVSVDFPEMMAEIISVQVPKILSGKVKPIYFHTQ
The experiment in a line: VCAP AR Degradation Assay. In kind it is cell-based. As to conditions: for Y (AR degradation efficiency, % of DMSO control): class symbols *; for DC50: class symbols A-C, read-out: DC50. In a few lines:
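24 h, 37 °C, VCaP (DMEM/8% FBS), 10-pt 1:3 dilutions from 5 μM final top, 0.1% DMSO ctrl. Lysis on ice/4 °C 1 h; total AR by sandwich ELISA, normalized to DMSO. 4PL fit → DC50, EC50, Y (min AR level).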

Consider `N#Cc1ccc(N2C(=O)C3(CCC3)N(c3ccc(OCCN4CCN(CC(=O)Nc5cccc(NC6CCC(=O)NC6=O)c5)CC4)c(F)c3)C2=S)cc1C(F)(F)F` (stereo not drawn) [Example 8, hydrochloride], for which the “Y (AR degradation efficiency, % of DMSO control)” value is recorded as “** (25%<Y<=35%)” and the 50% degradation concentration (DC50) (commonly the concentration giving 50% degradation) is less than 100 nM.

As for `CC1(C)C(=O)N(c2ccc(C#N)c(C(F)(F)F)c2)C(=S)N1c1ccc(OCCN2CCN(CC(=O)Nc3cccc(NC4CCC(=O)NC4=O)c3)[C@H](C(F)(F)F)C2)c(C2CC2)c1` (stereo partly drawn) [Example 245, 2-((S)-4-(2-(4-(3-(4-cyano-3-(trifluoromethyl)phenyl)-5,5-dimethyl-4-oxo-2-thioxoimidazolidin-1-yl)-2-cyclopropylphenoxy)ethyl)-2-(trifluoromethyl)piperazin-1-yl)-N-(3-(2,6-dioxopiperidin-3-ylamino)phenyl)acetamide], the “Y (AR degradation efficiency, % of DMSO control)” value is “* (0<Y<=25%)” and the DC50 was less than 100 nM.

Consider `C[C@@H]1CN(CCOc2ccc(N3C(=S)N(c4cnc(C#N)c(C(F)(F)F)c4)C(=O)C34CCC4)cc2C2CC2)C[C@H](C)N1CC(=O)Nc1cccc(NC2CCC(=O)NC2=O)c1` (stereo partly drawn) [Example 196, 2-((2S,6R)-4-(2-(4-(7-(6-cyano-5-(trifluoromethyl)pyridin-3-yl)-8-oxo-6-thioxo-5,7-diazaspiro[3.4]octan-5-yl)-2-cyclopropylphenoxy)ethyl)-2,6-dimethylpiperazin-1-yl)-N-(3-(2,6-dioxopiperidin-3-ylamino)phenyl)acetamide], for which the “Y (AR degradation efficiency, % of DMSO control)” value was “* (0<Y<=25%)” and the DC50 was less than 100 nM.

Take `CC1(C)C(=O)N(c2cnc(C#N)c(C(F)(F)F)c2)C(=S)N1c1ccc(OCCN2CCN(CC(=O)Nc3cccc(NC4CCC(=O)NC4=O)c3)[C@H](C(F)(F)F)C2)c(C2CC2)c1` (stereo partly drawn) [Example 233, 2-((S)-4-(2-(4-(3-(6-cyano-5-(trifluoromethyl)pyridin-3-yl)-5,5-dimethyl-4-oxo-2-thioxoimidazolidin-1-yl)-2-cyclopropylphenoxy)ethyl)-2-(trifluoromethyl)piperazin-1-yl)-N-(3-(2,6-dioxopiperidin-3-ylamino)phenyl)acetamide]: the “Y (AR degradation efficiency, % of DMSO control)” value is on record as “* (0<Y<=25%)” and the DC50 was less than 100 nM.

For the molecule `C[C@@H]1CN(CCOc2ccc(N3C(=S)N(c4ccc(C#N)c(C(F)(F)F)c4)C(=O)C3(C)C)cc2CCF)CCN1CC(=O)Nc1cccc(NC2CCC(=O)NC2=O)c1` (stereo partly drawn) [Example 164, 2-((R)-4-(2-(4-(3-(4-cyano-3-(trifluoromethyl)phenyl)-5,5-dimethyl-4-oxo-2-thioxoimidazolidin-1-yl)-2-(2-fluoroethyl)phenoxy)ethyl)-2-methylpiperazin-1-yl)-N-(3-(2,6-dioxopiperidin-3-ylamino)phenyl)acetamide], the “Y (AR degradation efficiency, % of DMSO control)” value is reported as “* (0<Y<=25%)” and the DC50 was less than 100 nM.

Consider `C[C@@H]1CN(CCOc2ccc(N3C(=S)N(c4cnc(C#N)c(C(F)(F)F)c4)C(=O)C34CCC4)cc2C2CC2)C[C@H](C)N1CC(=O)Nc1cc(Cl)cc(NC2CCC(=O)NC2=O)c1` (stereo partly drawn) [Example 215, N-(3-chloro-5-(2,6-dioxopiperidin-3-ylamino)phenyl)-2-((2S,6R)-4-(2-(4-(7-(6-cyano-5-(trifluoromethyl)pyridin-3-yl)-8-oxo-6-thioxo-5,7-diazaspiro[3.4]octan-5-yl)-2-cyclopropylphenoxy)ethyl)-2,6-dimethylpiperazin-1-yl)acetamide], for which the “Y (AR degradation efficiency, % of DMSO control)” value is listed as “* (0<Y<=25%)” and the half-maximal degradation concentration (DC50) was less than 100 nM.

On to `CC(C)c1cc(N2C(=S)N(c3ccc(C#N)c(Cl)c3)C(=O)C2(C)C)ccc1OCCN1C[C@@H](C)N(CC(=O)Nc2cccc(NC3CCC(=O)NC3=O)c2)C[C@H]1C` (stereo partly drawn) [Example 207, 2-((2R,5R)-4-(2-(4-(3-(3-chloro-4-cyanophenyl)-5,5-dimethyl-4-oxo-2-thioxoimidazolidin-1-yl)-2-isopropylphenoxy)ethyl)-2,5-dimethylpiperazin-1-yl)-N-(3-(2,6-dioxopiperidin-3-ylamino)phenyl)acetamide], for which the “Y (AR degradation efficiency, % of DMSO control)” value is listed as “** (25%<Y<=35%)” and the DC50 was in the range of 100 to 500 nM.

`CC1(C)C(=O)N(c2cnc(C#N)c(C(F)(F)F)c2)C(=S)N1c1ccc(OCCN2CCN(CC(=O)Nc3cccc(NC4CCC(=O)NC4=O)c3)CC2)c(C2CCC2)c1` (stereo not drawn) [Example 36, trifluoroacetate]: the “Y (AR degradation efficiency, % of DMSO control)” value is given as “* (0<Y<=25%)” and the half-maximal degradation concentration (DC50) was less than 100 nM.

For `CCc1cc(N2C(=S)N(c3ccc(C#N)c(C(F)(F)F)c3)C(=O)C2(C)C)cnc1OCCN1CCN(CC(=O)Nc2cccc(NC3CCC(=O)NC3=O)c2)[C@H](C)C1` (stereo partly drawn) [Example 187, 2-((R)-4-(2-(5-(3-(4-cyano-3-(trifluoromethyl)phenyl)-5,5-dimethyl-4-oxo-2-thioxoimidazolidin-1-yl)-3-ethylpyridin-2-yloxy)ethyl)-2-methylpiperazin-1-yl)-N-(3-(2,6-dioxopiperidin-3-ylamino)phenyl)acetamide], the “Y (AR degradation efficiency, % of DMSO control)” value is on record as “* (0<Y<=25%)” and the DC50 was less than 100 nM.

As for `CCc1cc(N2C(=S)N(c3ccc(C#N)c(C(F)(F)F)c3)C(=O)C2(C)C)ccc1OCCN1C[C@H](C)N(CC(=O)Nc2cccc(NC3CCC(=O)NC3=O)c2)[C@@H](C)C1` (stereo partly drawn) [Example 146, 2-((2S,6S)-4-(2-(4-(3-(4-cyano-3-(trifluoromethyl)phenyl)-5,5-dimethyl-4-oxo-2-thioxoimidazolidin-1-yl)-2-ethylphenoxy)ethyl)-2,6-dimethylpiperazin-1-yl)-N-(3-(2,6-dioxopiperidin-3-ylamino)phenyl)acetamide], the “Y (AR degradation efficiency, % of DMSO control)” value is on record as “* (0<Y<=25%)” and the DC50 was less than 100 nM.

Regarding `CCc1cc(N2C(=S)N(c3ccc(C#N)c(C(F)(F)F)c3)C(=O)C2(C)C)ccc1OCCN1CCN(CC(=O)Nc2cccc(N[C@H]3CCC(=O)NC3=O)c2)[C@H](C)C1` [Example 111, 2-((R)-4-(2-(4-(3-(4-cyano-3-(trifluoromethyl)phenyl)-5,5-dimethyl-4-oxo-2-thioxoimidazolidin-1-yl)-2-ethylphenoxy)ethyl)-2-methylpiperazin-1-yl)-N-(3-((S)-2,6-dioxopiperidin-3-ylamino)phenyl)acetamide], the “Y (AR degradation efficiency, % of DMSO control)” value is listed as “* (0<Y<=25%)” and the DC50 is less than 100 nM.

For `C[C@@H]1CN(CCOc2ccc(N3C(=S)N(c4ccc(C#N)c(Cl)c4)C(=O)C3(C)C)cc2C2CC2)C[C@H](C)N1CC(=O)Nc1cc(F)cc(NC2CCC(=O)NC2=O)c1` (stereo partly drawn) [Example 226, 2-((2S,6R)-4-(2-(4-(3-(3-chloro-4-cyanophenyl)-5,5-dimethyl-4-oxo-2-thioxoimidazolidin-1-yl)-2-cyclopropylphenoxy)ethyl)-2,6-dimethylpiperazin-1-yl)-N-(3-(2,6-dioxopiperidin-3-ylamino)-5-fluorophenyl)acetamide], the “Y (AR degradation efficiency, % of DMSO control)” value was “* (0<Y<=25%)” and the DC50 is less than 100 nM.

Turning to `C[C@@H]1CN(CCOc2ccc(N3C(=S)N(c4cnc(C#N)c(C(F)(F)F)c4)C(=O)C34CCC4)cc2C2CC2)C[C@H](C)N1CC(=O)Nc1cc(C#N)cc(NC2CCC(=O)NC2=O)c1` (stereo partly drawn) [Example 212, N-(3-cyano-5-(2,6-dioxopiperidin-3-ylamino)phenyl)-2-((2S,6R)-4-(2-(4-(7-(6-cyano-5-(trifluoromethyl)pyridin-3-yl)-8-oxo-6-thioxo-5,7-diazaspiro[3.4]octan-5-yl)-2-cyclopropylphenoxy)ethyl)-2,6-dimethylpiperazin-1-yl)acetamide], the “Y (AR degradation efficiency, % of DMSO control)” value was “* (0<Y<=25%)” and the DC50 is less than 100 nM.

As for `CC1(C)C(=O)N(c2ccc(C#N)c(C(F)(F)F)c2)C(=S)N1c1ccc(OCCN2CCN(CC(=O)Nc3cccc(NC4CCC(=O)NC4=O)c3)CC2)c(C(F)(F)F)c1` (stereo not drawn) [Example 12, hydrochloride], the “Y (AR degradation efficiency, % of DMSO control)” value is listed as “*** (35%<Y<50%)” and the DC50 lay within 100 to 500 nM.

Take `CCc1cc(N2C(=S)N(c3cnc(C#N)c(C(F)(F)F)c3)C(=O)C2(C)C)ccc1OCCN1CCN(CC(=O)Nc2cc(Cl)cc(NC3CCC(=O)NC3=O)c2)[C@H](C)C1` (stereo partly drawn) [Example 144, N-(3-chloro-5-(2,6-dioxopiperidin-3-ylamino)phenyl)-2-((R)-4-(2-(4-(3-(6-cyano-5-(trifluoromethyl)pyridin-3-yl)-5,5-dimethyl-4-oxo-2-thioxoimidazolidin-1-yl)-2-ethylphenoxy)ethyl)-2-methylpiperazin-1-yl)acetamide]: the “Y (AR degradation efficiency, % of DMSO control)” value is reported as “* (0<Y<=25%)” and the DC50 is less than 100 nM.
